Literature values in patent US20190151234A1, “STABLE LIQUID PHARMACEUTICAL FORMULATIONS OF BENDAMUSTINE” (priority 2016, published 2019).
Read-outs that look alike come from different tables or passages of the source.

Conditions: for time stable: 0.25 mg/ml in 0.9% sodium chloride, Pharmazie 1994

Which results are given for `Cl.Cn1c(CCCC(=O)O)nc2cc(N(CCCl)CCCl)ccc21` [Bendamustine HCl, Bendamustine hydrochloride]?
time stable (at 4° C.): 5 days; time stable (at 23° C.): 0.38 days; stability in aqueous solutions (aqueous solutions, per U.S. Pat. Nos. 8,609,707, 9,265,831): limited to few hours
